In EP2140864A2 (H. Lundbeck A/S, priority 2001, dated 2002):
Where two headings read alike, the source gives them in different places.

What was measured:
human 5HT1E = target: T1, human 5HT1E (Homo sapiens, UniProt P28566); assay: Radioligand binding, 5HT1E receptor ([3H]-serotonin); conditions: for Ki: Table 7, read-out: h5HT1E Ki; for selectivity ratio h5HT1E: Table 8, Ki h5HT1E divided by Ki hGAL3
T1 construct: expressed in transfected cells
Description: (§1) Human 5HT1B, 5HT1D, 5HT1E, 5HT1F, and 5HT7 Receptors: The cell lysates of LM(tk-) clonal cell line stably transfected with the genes encoding each of these 5HT receptor-subtypes were prepared as described above. Cell membranes were suspended in 50mM Tris-HCl buffer (pH 7.4 at 37°C) containing 10 mM MgCl2, 0.2 mM EDTA, 10 µM pargyline, and 0.1% ascorbate. […] Nonspecific binding was determined in the presence of 10 µM serotonin. The bound radioligand was separated by filtration through GF/B filters using a cell harvester.
(§2) Binding data were analyzed using nonlinear regression and statistical techniques available in the GraphPAD Prism package (San Diego, CA). Enzymatic assay data were derived from a standard curve of reference compound data.

DA transporter = DA transporter (Rattus norvegicus, UniProt P23977); assay: Binding at native DA transporter; conditions: for Ki: Table 7, native transporter, head prints r (rat), read-out: rDA Uptk Ki; for selectivity ratio rDA Uptk: Table 8, Ki rDA Uptk divided by Ki hGAL3
Chain of DA transporter (P23977 whole entry): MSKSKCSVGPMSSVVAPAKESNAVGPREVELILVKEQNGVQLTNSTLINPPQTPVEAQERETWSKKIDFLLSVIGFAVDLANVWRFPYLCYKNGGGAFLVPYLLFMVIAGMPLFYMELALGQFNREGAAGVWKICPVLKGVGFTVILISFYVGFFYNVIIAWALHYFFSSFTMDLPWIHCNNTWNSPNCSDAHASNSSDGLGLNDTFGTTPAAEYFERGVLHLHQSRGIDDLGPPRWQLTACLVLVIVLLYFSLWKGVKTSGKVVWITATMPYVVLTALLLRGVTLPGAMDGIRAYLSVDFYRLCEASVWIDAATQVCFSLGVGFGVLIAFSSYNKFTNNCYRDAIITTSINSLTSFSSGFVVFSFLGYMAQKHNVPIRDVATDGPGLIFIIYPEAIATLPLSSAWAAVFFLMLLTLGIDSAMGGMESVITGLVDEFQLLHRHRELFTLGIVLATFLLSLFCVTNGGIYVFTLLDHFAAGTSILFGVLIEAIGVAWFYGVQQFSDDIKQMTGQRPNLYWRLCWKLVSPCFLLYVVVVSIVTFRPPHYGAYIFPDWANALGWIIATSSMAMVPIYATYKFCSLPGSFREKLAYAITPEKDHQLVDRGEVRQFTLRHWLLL
Description: (§3) The binding properties of the compounds of the present invention were evaluated at one or more cloned receptors or native, tissue-derived transporters, using protocols described below.
(§4) The methods to determine binding affinity at native transporters are described in the following publications: 5HT transporter and NE transporter (Owens et al., 1997), and DA transporter (Javitch et al, 1984).
as §2

human 5HT1D = target: T2, human 5HT1D (Homo sapiens, UniProt P28221); assay: Radioligand binding, 5HT1D receptor ([3H]-serotonin); conditions: for Ki: Table 7, read-out: h5HT1D Ki; for selectivity ratio h5HT1D: Table 8, Ki h5HT1D divided by Ki hGAL3
T2 construct: expressed in transfected cells
T2 sequence (P28221 whole entry): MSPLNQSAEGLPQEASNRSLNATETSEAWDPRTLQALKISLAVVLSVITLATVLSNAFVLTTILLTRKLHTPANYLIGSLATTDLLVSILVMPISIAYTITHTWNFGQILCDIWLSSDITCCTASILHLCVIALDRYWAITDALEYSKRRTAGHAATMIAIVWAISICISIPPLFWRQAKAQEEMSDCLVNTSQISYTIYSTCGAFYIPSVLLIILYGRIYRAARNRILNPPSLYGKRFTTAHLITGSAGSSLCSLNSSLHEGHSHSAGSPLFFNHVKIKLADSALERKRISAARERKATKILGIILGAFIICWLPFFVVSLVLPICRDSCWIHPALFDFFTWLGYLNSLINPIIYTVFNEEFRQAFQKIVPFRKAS
Description: as §1, §2

5HT transporter = 5HT transporter (Rattus norvegicus, UniProt P31652); assay: Binding at native 5HT transporter; conditions: for Ki: Table 7, native transporter, head prints r (rat), read-out: r5HT Uptk Ki; for selectivity ratio r5HT Uptk: Table 8, Ki r5HT Uptk divided by Ki hGAL3
Chain of 5HT transporter (P31652 whole entry): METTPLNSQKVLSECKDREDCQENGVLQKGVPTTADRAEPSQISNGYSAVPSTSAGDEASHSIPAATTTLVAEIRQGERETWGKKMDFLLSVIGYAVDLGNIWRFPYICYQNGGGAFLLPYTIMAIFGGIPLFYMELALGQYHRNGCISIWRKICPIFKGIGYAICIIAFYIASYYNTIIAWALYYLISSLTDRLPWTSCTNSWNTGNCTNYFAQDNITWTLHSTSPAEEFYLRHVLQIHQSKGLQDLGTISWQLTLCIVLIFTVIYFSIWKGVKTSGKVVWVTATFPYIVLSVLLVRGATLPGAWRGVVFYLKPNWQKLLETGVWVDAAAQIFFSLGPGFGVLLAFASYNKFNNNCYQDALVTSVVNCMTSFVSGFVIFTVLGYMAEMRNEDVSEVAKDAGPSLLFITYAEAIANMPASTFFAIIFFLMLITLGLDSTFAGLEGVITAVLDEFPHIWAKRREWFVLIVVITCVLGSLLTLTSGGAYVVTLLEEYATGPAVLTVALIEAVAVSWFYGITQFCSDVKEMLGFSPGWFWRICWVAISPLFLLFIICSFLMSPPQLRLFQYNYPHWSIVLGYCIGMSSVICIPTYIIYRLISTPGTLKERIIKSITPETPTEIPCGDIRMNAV
Description: as §3, §4, §2

human 5HT4 receptor = target: T3, human 5HT4 receptor (Homo sapiens, UniProt Q13639); assay: Radioligand binding, 5-HT4 receptor; conditions: for Ki: Table 7, read-out: h5HT4 Ki; for selectivity ratio h5HT4: Table 8, Ki h5HT4 divided by Ki hGAL3
T3 construct: expressed in transfected cells
T3 sequence (Q13639 whole entry): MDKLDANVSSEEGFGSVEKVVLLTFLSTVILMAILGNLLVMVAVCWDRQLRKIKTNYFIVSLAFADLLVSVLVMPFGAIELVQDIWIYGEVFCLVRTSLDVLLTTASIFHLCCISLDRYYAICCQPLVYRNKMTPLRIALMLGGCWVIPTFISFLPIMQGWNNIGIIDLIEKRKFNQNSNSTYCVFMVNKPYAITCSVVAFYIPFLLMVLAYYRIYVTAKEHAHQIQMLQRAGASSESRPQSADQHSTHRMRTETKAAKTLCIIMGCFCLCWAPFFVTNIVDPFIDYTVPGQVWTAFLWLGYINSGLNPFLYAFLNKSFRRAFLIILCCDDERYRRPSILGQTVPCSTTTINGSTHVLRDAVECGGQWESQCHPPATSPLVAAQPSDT
Description: (§5) Other 5-HT Receptors: Other serotonin receptor binding assays were performed according to published methods: rat 5HT2C receptor (Julius et al., 1988); and 5-HT6 (Monsma, et al., 1993). The binding assays using the 5-HT4 receptor were performed according to the procedures described in U.S. Patent No. 5,766,879, the disclosure of which is hereby incorporated by reference in its entirety into this application.
as §2

human GAL2 receptor = target: T4, human GAL2 receptor (Homo sapiens, UniProt O43603); assay: Radioligand binding at cloned human GAL2 receptor; conditions: read-out: Ki GalR2
T4 construct: expressed in transfected cells
T4 sequence (O43603 1-387): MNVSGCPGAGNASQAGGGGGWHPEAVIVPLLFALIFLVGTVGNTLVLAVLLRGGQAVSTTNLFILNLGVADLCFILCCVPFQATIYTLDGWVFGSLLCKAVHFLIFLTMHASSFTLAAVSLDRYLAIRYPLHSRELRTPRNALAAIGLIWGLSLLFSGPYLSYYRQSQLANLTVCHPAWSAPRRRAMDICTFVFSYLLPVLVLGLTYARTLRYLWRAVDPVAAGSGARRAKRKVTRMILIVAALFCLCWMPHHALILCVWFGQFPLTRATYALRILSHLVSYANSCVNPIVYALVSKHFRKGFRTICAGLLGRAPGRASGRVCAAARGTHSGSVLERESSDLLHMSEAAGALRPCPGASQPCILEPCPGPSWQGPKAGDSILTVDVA
Outline: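 Membranes from CHO cells stably expressing human GAL2 and LM(tk-) cells stably expressing human GAL1, resuspended in binding buffer (10 mM NaCl, 20 mM HEPES, pH 7.4). Binding data fitted by nonlinear regression.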

rat 5HT2C receptor = target: T5, rat 5HT2C receptor (Rattus norvegicus, UniProt P08909); assay: Radioligand binding, 5HT2C receptor; conditions: for Ki: Table 7, read-out: r5HT2C Ki; for selectivity ratio r5HT2C: Table 8, Ki r5HT2C divided by Ki hGAL3
T5 construct: expressed in transfected cells
T5 sequence (P08909 33-460): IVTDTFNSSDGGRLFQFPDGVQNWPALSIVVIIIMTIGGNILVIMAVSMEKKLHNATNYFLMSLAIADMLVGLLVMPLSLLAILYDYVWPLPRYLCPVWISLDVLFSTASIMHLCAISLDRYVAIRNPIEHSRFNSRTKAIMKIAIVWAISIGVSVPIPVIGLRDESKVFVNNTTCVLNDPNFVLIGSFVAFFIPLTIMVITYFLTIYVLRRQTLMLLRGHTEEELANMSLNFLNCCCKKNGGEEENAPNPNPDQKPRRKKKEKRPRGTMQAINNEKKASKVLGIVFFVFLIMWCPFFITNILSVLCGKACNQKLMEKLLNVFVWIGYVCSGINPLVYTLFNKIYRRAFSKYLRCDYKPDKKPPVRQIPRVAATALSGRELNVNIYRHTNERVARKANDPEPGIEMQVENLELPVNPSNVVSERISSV
Description: as §5, §2

T1 sequence (P28566 whole entry): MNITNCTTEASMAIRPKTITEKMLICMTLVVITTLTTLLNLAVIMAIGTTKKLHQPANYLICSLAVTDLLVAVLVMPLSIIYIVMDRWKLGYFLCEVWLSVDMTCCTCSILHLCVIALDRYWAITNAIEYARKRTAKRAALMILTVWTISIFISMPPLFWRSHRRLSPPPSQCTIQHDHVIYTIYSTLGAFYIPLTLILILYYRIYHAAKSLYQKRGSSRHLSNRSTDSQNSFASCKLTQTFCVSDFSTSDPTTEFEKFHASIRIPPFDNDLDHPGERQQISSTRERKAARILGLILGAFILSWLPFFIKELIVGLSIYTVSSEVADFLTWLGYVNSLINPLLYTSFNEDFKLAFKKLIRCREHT

| SMILES | Ki (human 5HT1E) [µM] | selectivity ratio h5HT1E (human 5HT1E) | Ki (DA transporter) [µM] | selectivity ratio rDA Uptk (DA transporter) | Ki (human 5HT1D) [µM] | selectivity ratio h5HT1D (human 5HT1D) | Ki (5HT transporter) [µM] | selectivity ratio r5HT Uptk (5HT transporter) | Ki (human 5HT4 receptor) [µM] | selectivity ratio h5HT4 (human 5HT4 receptor) | Ki (human GAL2 receptor; pyrimidines) [µM] | Ki (rat 5HT2C receptor) [µM] | selectivity ratio r5HT2C (rat 5HT2C receptor) | Ki (human GAL2 receptor; indolones) [µM] |
| --- | --- | --- | --- | --- | --- | --- | --- | --- | --- | --- | --- | --- | --- | --- |
| Cc1ccc(Nc2cc(N3CCCCC3)nc(N(C)CCc3ccccc3)n2)cc1 [Example 22] | 13.2 | >100 | 7.48 | >100 | 1.85 | >30 | 8.48 | >100 | 2.46 | >30 | 0.176 | 1.72 | >30 | – |
| O=C1C(=Nc2ccc(Br)cc2)c2ccccc2N1c1ccccc1 [Example 98, 3-[(4-BROMOPHENYL)IMINO]-1-PHENYL-1,3-DIHYDRO-2H-INDOL-2-ONE] | 16.2 | >100 | 7.43 | >100 | 9.12 | >100 | 36.3 | >100 | 1.21 | >30 | – | 2.26 | >30 | > 10 |
| O=C1C(=Nc2ccc(C(F)(F)F)cc2)c2ccccc2N1c1ccccc1 [Example 95, 1-PHENYL-3-[[4-(TRIFLUOROMETHYL)PHENYL]IMINO]-1,3-DIHYDRO-2H-INDOL-2-ONE] | 27.2 | >100 | 12 | >100 | 16 | >100 | > 50 | >100 | 3.03 | >100 | – | 3.47 | >100 | > 10 |
| CN(C)c1cc(Nc2ccc(Cl)c(Cl)c2)nc(Nc2ccccc2)n1 [Example 60] | 1.18 | 14 | 14.5 | >100 | 9.2 | >100 | 25.3 | >100 | 1.18 | 14 | > 5 | 1.78 | 21 | – |
| CN(CCc1c[nH]c2ccccc12)c1nc(Nc2ccc(F)c(F)c2)cc(N2CCCCC2)n1 [Example 15] | 11 | >100 | 24.5 | >100 | 1.27 | 17 | 1.74 | 24 | 2.3 | >30 | 0.624 | 0.572 | 8 | – |
| Cc1ccc(Nc2cc(N3CCCCC3)nc(N(C)CCc3c[nH]c4ccccc34)n2)cc1 [Example 11] | 9.17 | >100 | 5.43 | >30 | 0.102 | 1 | 1.59 | 18 | 1.31 | 14 | 0.681 | 0.802 | 9 | – |
| O=C1C(=Nc2cc(Cl)cc(Cl)c2)c2ccccc2N1c1ccccc1 [Example 103, 3-[(3,5-DICHLOROPHENYL)IMINO]-1-PHENYL-1,3-DIHYDRO-2H-INDOL-2-ONE] | – | – | – | – | – | – | – | – | – | – | – | – | – | > 10 |
| COc1cccc(Nc2cc(N3CCCCC3)nc(N(C)CCc3c[nH]c4ccccc34)n2)c1 [Example 17] | 33.5 | >100 | 27.2 | >100 | 1.03 | 12 | 0.719 | 8 | 2.61 | 30 | 2.09 | 0.562 | 6 | – |
| O=C1C(=Nc2cccc(C(F)(F)F)c2)c2ccccc2N1c1ccccc1 [Example 92, 1-PHENYL-3- [[3-(TRIFLUOROMETHYL)PHENYL]IMINO]-1,3-DIHYDRO-2H-INDOL-2-ONE] | – | >100 | – | >100 | – | >100 | – | >100 | – | 2 | – | – | – | – |
